The IC50 is the concentration needed to halve the response being measured.

Experimental findings from publication PMC11678491, “Bis-Iridoid Glycosides and Triterpenoids from Kolkwitzia amabilis and Their Potential as Inhibitors of ACC1 and ACL” (Molecules, 2024) are described below.

For one experiment, the target named is T1, ATP-citrate lyase (ACL) (Homo sapiens, UniProt P53396).
T1 sequence (P53396 1-1101): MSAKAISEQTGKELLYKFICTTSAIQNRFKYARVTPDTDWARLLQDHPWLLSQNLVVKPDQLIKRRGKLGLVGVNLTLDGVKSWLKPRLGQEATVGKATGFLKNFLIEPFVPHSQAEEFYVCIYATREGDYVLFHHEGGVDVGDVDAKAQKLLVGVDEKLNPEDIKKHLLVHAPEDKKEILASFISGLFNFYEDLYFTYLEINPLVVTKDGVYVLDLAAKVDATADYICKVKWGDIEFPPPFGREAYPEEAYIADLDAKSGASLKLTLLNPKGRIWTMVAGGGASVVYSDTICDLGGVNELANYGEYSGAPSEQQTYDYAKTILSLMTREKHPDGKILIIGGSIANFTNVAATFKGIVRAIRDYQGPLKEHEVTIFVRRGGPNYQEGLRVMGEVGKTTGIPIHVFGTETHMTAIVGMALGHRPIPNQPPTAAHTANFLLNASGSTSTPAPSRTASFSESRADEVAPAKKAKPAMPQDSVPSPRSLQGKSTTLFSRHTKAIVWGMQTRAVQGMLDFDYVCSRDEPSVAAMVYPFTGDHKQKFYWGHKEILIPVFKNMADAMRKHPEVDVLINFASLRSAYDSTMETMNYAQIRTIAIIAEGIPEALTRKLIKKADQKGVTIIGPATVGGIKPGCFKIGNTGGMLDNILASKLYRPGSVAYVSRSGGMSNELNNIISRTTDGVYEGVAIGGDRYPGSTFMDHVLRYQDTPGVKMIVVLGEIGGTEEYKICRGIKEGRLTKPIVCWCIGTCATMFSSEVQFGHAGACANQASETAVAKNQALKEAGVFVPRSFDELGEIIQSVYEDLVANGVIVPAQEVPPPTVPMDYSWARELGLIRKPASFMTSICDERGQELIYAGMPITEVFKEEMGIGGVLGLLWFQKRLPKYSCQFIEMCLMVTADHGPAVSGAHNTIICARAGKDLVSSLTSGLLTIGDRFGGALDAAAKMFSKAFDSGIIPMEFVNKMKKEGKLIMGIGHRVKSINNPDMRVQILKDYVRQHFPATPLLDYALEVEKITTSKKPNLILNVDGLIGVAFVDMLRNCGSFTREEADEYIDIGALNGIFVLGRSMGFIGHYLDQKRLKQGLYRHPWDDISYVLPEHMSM
Description: ACL inhibitory assay (ADP-Glo luminescence). The class given is biochemical. The method, then: (§1) The ACC1 and ACL inhibitory activity assay were conducted using ADP-Glo^TM luminescence assay reagents (Promega Biotech Co., Ltd, Beijing, China), which measure ACC1 or ACL activity by quantifying the amount of ADP generated in the enzymatic reaction. […] Reactions were conducted in each well for 30 min at room temperature. Following this, 2.0 μL of ATP was added to each well, and the mixture was incubated for 1 h at room temperature. Negative control wells, which lacked the protein kinase, substrate, and ATP, were also included in the kinase assay. After the enzymatic reaction, 2.5 μL of ADP-Glo reagent was added to each well to terminate the kinase reaction and deplete any unconsumed ATP within 1 h at room temperature. Finally, 5.0 μL of kinase detection reagent was added to each well and incubated for 1 h to convert ADP to ATP. The luminescence signal was measured using a PerkinElmer EnVision reader.
A general note: In ADP-Glo the light output rises with the ADP produced.

Experiment [1] deals with acetyl CoA carboxylase 1 (ACC1) (Homo sapiens, UniProt Q13085). Description: ACC1 inhibitory assay (ADP-Glo luminescence). The format is biochemical. The method, then: as §1
[2] abbreviates: Figure 5, mean ± standard deviation (SD) (n = 3).
Setting [3] is: mean ± SEM of triplicated experiments.
[4] abbreviates: mean ± SEM of triplicated experiments, read-out: IC50 ACC1.
[5] abbreviates: Figure 5, mean ± standard deviation (SD) (n = 3), read-out: IC50 (ACC1).

Read-outs that look alike come from different tables or passages of the source.

For `C=C[C@H]1[C@H](O[C@@H]2O[C@H](CO)[C@@H](O)[C@H](O)[C@H]2O)OC=C(C(=O)O[C@H]2C[C@@H]3C(C(=O)OC)=CO[C@@H](O)[C@@H]3[C@@H]2C)[C@H]1CC(OC)OC` [Compound 8, lonicejaposide C], the half-maximal inhibitory concentration (IC50) is 3.63 ± 0.91 µM at ATP-citrate lyase (ACL) (setting [2]), 3.6 ± 0.9 µM against ATP-citrate lyase (ACL) (setting [3]) and over 20 µM in experiment [1] (setting [4]).
Take `C=C[C@H]1[C@H](O[C@@H]2O[C@H](CO)[C@@H](O)[C@H](O)[C@H]2O)OC=C(C(=O)O[C@H]2C[C@@H]3C(C(=O)OC)=CO[C@@H](O[C@@H]4O[C@H](CO)[C@@H](O)[C@H](OC(=O)/C=C/c5ccc(O)c(O)c5)[C@H]4O)[C@@H]3[C@@H]2C)[C@H]1CC(OC)OC` [Compound 2, Amabilioside B]: the values for the IC50 in experiment [1] (setting [5]) and in experiment [1] (setting [4]) were 9.64 ± 0.99 µM and 9.6 ± 1 µM, respectively.
On ATP-citrate lyase (ACL) (setting [3]), `COc1ccc(-c2ccccc2)cc1NS(=O)(=O)c1cc(Cl)cc(Cl)c1O` [BMS 303141, reference compound] had a half-maximal inhibitory concentration (IC50) of 0.3 ± 0.1 µM.
As to `CC(=O)O[C@H]1CC[C@]2(C)[C@H]3CC=C4[C@@H]5[C@@H](C)[C@H](C)CC[C@]5(C(=O)O)CC[C@@]4(C)[C@]3(C)CC[C@H]2C1(C)C` [Compound 17, 3β-acetyl-ursolic acid], the IC50 was 2 ± 0.5 µM against ATP-citrate lyase (ACL) (setting [3]), 10.3 ± 0.78 µM in experiment [1] (setting [5]) and 10.3 ± 0.8 µM in experiment [1] (setting [4]).
Turning to `COc1ccccc1[C@H](Cn1c(=O)n(C(C)(C)C(=O)O)c(=O)c2c(C)c(-c3ncco3)sc21)OC1CCOCC1` [ND 630, Firsocostat, reference compound], half-maximal inhibition in experiment [1] (IC50) required 0.002 ± 0.0001 µM.
In the case of `CC1(C)CC[C@]2(C(=O)O)CC[C@]3(C)C(=CC[C@@H]4[C@@]5(C)CC[C@H](O)[C@@](C)(COC(=O)/C=C/c6ccc(O)cc6)[C@@H]5CC[C@]43C)[C@@H]2C1` [Compound 31, (23E)-coumaroylhederagenin], the 50% inhibitory concentration (IC50) is 4.69 ± 1.3 µM on ATP-citrate lyase (ACL) (setting [2]), 4.7 ± 1.3 µM against ATP-citrate lyase (ACL) (setting [3]) and over 20 µM in experiment [1] (setting [4]).
